The term MIC denotes the smallest concentration in the dilution series that meets the test's criterion for growth inhibition. By AUC is commonly meant concentration integrated over time. Read a high AUC as more exposure.

One data set deals with E. coli A9675. The experiment in a line: Therapeutic efficacy of BL-P2043, BL-P2044 and components, oral, infected mice (Table 13). The format is in vivo. Particulars: Escherichia coli, A9675, po, read-out: PD50/Treatment.
The conditions of data set [1]: mouse, in vivo, po, 38 mg/kg.
Data set [2] relates to β-lactamase-producing bacteria. The data set is described as follows: Protection of ceforanide and amoxicillin from destruction. Particulars: in vitro and in vivo, in combination.
A further data set concerns B. thetaiotaomicron. The data set is described as follows: Anti-Bacteroides activity, MIC by agar dilution (Table 2). Particulars: A22279, beta-lactamase +. The format is cell-based. Here is the method:
*Minimum inhibitory concentration (MIC) determined by the agar dilution
method using 50X dilutions of 24 hour cultures as inocula dispensed by th
Steer's inoculator. Assay medium composed of Brucella Agar plus 5% laked
sheep blood and 10 mcg/ml vitamin K.

The nature of data set [3]: in vivo. Particulars: mouse, po, 38 mg/kg.
The subject of another data set is M. morganii. The data set is described as follows: Antibacterial activity of ceforanide alone and with BL-P2013, MIC (Table 11). Format: cell-based. The conditions noted are these: geometric mean. The text has this: (§1) ^a Geometric mean value where applicable.
The test system of the next data set is C. freundii. The data set is described as above. Format: cell-based. The conditions noted are these: Citrobacter freundii.
Text: as §1

The next data set relates to P. aeruginosa. Described as above. The format is cell-based. The conditions noted are these: Pseudomonas aeruginosa.
Text: as §1

The subject of a further data set is S. marcescens. Described as above. Format: cell-based.
Text: as §1

In a further data set the test system is E. aerogenes. The description is as above. The format is cell-based.
Text: as §1

The test system of another data set is P. stuartii. Described as above. The format is cell-based. The conditions noted are these: Providencia stuartii.
Text: as §1

A further data set relates to Citrobacter sp. The description is as above. The format is cell-based.
Text: as §1

Another data set has as its system Bacteroides species. The experiment in a line: Anti-Bacteroides activity, MIC by agar dilution (Table 2). Format: cell-based. On the technique in general: Agar dilution tests growth on a series of plates holding different concentrations.
A short description of data set [4]: in vivo. The conditions noted are these: mouse, po, 38 mg/kg. The text has this: Compounds were solubilized in propylene glycol, except for the Hetacillin
The source holds these as a separate data set.

Data set [5] in a line: Blood levels after oral administration to mice (Table 4). The format is in vivo. Particulars: 100 mg/kg oral, 15 min, assay S. aureus A-9606.
A short description of the next data set: Storage stability. Format: physicochemical. Particulars: 23° C., seven days.
A further data set can be described thus: Hygroscopicity. The format is physicochemical. Particulars: solid.
For data set [6], the system named is β-lactamase-producing strains. The conditions noted are these: in vitro and in vivo; cited from earlier work.
In another data set the test system is P. vulgaris. The data set is described as follows: Antibacterial activity of ceforanide alone and with BL-P2013, MIC (Table 11). The format is cell-based. Particulars: Proteus vulgaris.
Text: as §1

The next data set concerns P. rettgeri. Described as above. Format: cell-based. Particulars: Providencia rettgeri.
Text: as §1

The subject of the next data set is P. mirabilis. Described as above. Format: cell-based. Particulars: Proteus mirabilis.
Text: as §1

In the next data set the test system is S. faecalis. The description is as above. The format is cell-based. The conditions noted are these: Enterococcus faecalis.
Text: as §1

The test system of a further data set is E. cloacae. Described as above. The conditions noted are these: Enterobacter cloacae. The format is cell-based.
Text: as §1

For another data set, the system named is β-lactamase enzyme RTEM. The conditions noted are these: cited from earlier work.
[7] abbreviates: Klebsiella aerogenes, 4 strains, geometric mean, read-out: MIC.

Values after ≈ are worked out from the molar mass of the structure shown. Read-outs that look alike come from different tables or passages of the source.

For `CC1(CCl)C(C(=O)O)N2C(=O)CC2S1(=O)=O` (stereo not drawn) [BL-P2013, Potassium 2β-Chloromethyl-2α-methylpenam-3α-carboxylate Sulfone], in the data set with E. coli A9675, the ED50 was greater than 50 mg/kg. In addition, the figures for the “Blood Level” value in data set [1] (0.5 h), in [1] (1 h) and in data set [5] were 1800 ng/mL, 1400 ng/mL and 4600 ng/mL, respectively. Moreover, the “protection of ceforanide and amoxicillin from destruction by β-lactamase-producing bacteria” value in [2] is “protected ceforanide and amoxicillin from destruction by β-lactamase-producing bacteria in vitro and in vivo”. The MIC is 63 µg/mL in the data set on B. thetaiotaomicron; greater than 125 µg/mL against M. morganii (8 strains (second line)); greater than 125 µg/mL in the data set with C. freundii (1 strain, read-out: MIC); 125 µg/mL with P. aeruginosa (16 strains, geometric mean, read-out: MIC); 125 µg/mL with S. marcescens (6 strains, geometric mean); 125 µg/mL in the data set with S. marcescens (Serratia marcescens, 10 strains, geometric mean, read-out: MIC). Also, the MIC with E. aerogenes (Klebsiella aerogenes, 1 strain, read-out: MIC) was 16 µg/mL; in the data set with E. aerogenes (setting [7]), greater than 125 µg/mL; with E. aerogenes (Klebsiella aerogenes, 5 strains, geometric mean, read-out: MIC) it was greater than 125 µg/mL; in the data set on P. stuartii (1 strain) it was 125 µg/mL; with P. stuartii (4 strains, geometric mean) it was 125 µg/mL; with Citrobacter sp. (1 strain, read-out: MIC), 16 µg/mL. Also, the MIC in the data set on Bacteroides species (A20927-1, beta-lactamase -) came to 63 µg/mL; in the data set on Bacteroides species (A20933, beta-lactamase +), 63 µg/mL. Further, the exposure (AUC) in the data set “in vivo [3]” (AUC) and in “in vivo [4]” was 4400 ng·h/mL in each case. Also, the concentration at 0.5 h in “in vivo [3]” (Blood Level) and in the data set “in vivo [4]” was 2300 ng/mL each time. Besides, the concentration at 2 h in the data set “in vivo [4]” was determined as 1600 ng/mL.

For the compound `CC1(CCl)C(C(=O)O)N2C(=O)CC2S1(=O)=O` (stereo not drawn) [BL-P2013 Free Acid, 2β-chloromethyl-2α-methylpenam-3α-carboxylic acid sulfone], the stability on storage entry in “Storage stability” is “unstable when stored at 23 °C for seven days”. In addition, the hygroscopicity entry in the data set “Hygroscopicity” was “hydroscopic”.

For `CC1(C)[C@H](C(=O)O)N2C(=O)C[C@H]2S1(=O)=O` [CP-45899], in data set [6], the potentiation of ampicillin result is “potentiates the in vitro and in vivo activities of ampicillin versus β-lactamase-producing strains”.

For the compound `NCc1ccccc1CC(=O)N[C@@H]1C(=O)N2C(C(=O)O)=C(CSc3nnnn3CC(=O)O)CS[C@H]12` [Ceforanide], the minimal inhibitory concentration (MIC) is greater than 125 µg/mL against P. vulgaris; 0.5 µg/mL (≈ 0.962 µM) in the data set on P. vulgaris (1 strain, read-out: MIC); 85 µg/mL (≈ 164 µM) with P. vulgaris (9 strains, geometric mean, read-out: MIC); 0.06 µg/mL (≈ 0.115 µM) against P. rettgeri (1 strain (first line)); 16 µg/mL (≈ 30.8 µM) against P. rettgeri (1 strain (second line)); 0.25 µg/mL (≈ 0.481 µM) in the data set with P. mirabilis (1 strain). Further, the MIC in the data set with P. mirabilis (3 strains, geometric mean) was 25.4 µg/mL (≈ 48.9 µM); against M. morganii (Morganella morganii, 8 strains (second line)), greater than 125 µg/mL; with M. morganii (Morganella morganii, 8 strains (first line), read-out: MIC), 65 µg/mL (≈ 125 µM); in the data set with C. freundii, greater than 125 µg/mL; against P. aeruginosa, 125 µg/mL (≈ 241 µM); against S. marcescens (6 strains, geometric mean), 125 µg/mL (≈ 241 µM). Besides, the MIC with S. marcescens (Serratia marcescens) was 125 µg/mL (≈ 241 µM); in the data set with S. faecalis, greater than 125 µg/mL; against E. aerogenes (5 strains, geometric mean), greater than 125 µg/mL; in the data set with E. aerogenes (Klebsiella aerogenes), greater than 125 µg/mL; in the data set with E. aerogenes (setting [7]) it was 3.4 µg/mL (≈ 6.54 µM); against P. stuartii (1 strain) it was 0.35 µg/mL (≈ 0.674 µM). Also, the minimal inhibitory concentration (MIC) was 45 µg/mL (≈ 86.6 µM) against P. stuartii (4 strains, geometric mean); 22.6 µg/mL (≈ 43.5 µM) with E. cloacae (1 strain (first line)); greater than 125 µg/mL in the data set with E. cloacae (1 strain (third line)); greater than 125 µg/mL against E. cloacae (14 strains, geometric mean); greater than 125 µg/mL in the data set on Citrobacter sp..

Regarding `CC1(C)[C@H](C(=O)O)N2C(=O)[C@@H](Br)[C@H]2S1(=O)=O` [(2S,5R,6S)-6β-Bromo-3,3-dimethyl-7-oxo-4-thia-1-azabicyclo[3.2.0]heptane-2-carboxylic acid, S,S-dioxide], in the data set on β-lactamase enzyme RTEM, the “inhibition of β-lactamase” value is “inhibit the action of the β-lactamase enzyme RTEM”.

The values above are taken from US4380512A, “2β-Chloromethyl-2α-methylpenam-3α-carboxylic acid sulfone and salts and esters thereof” (Bristol-Myers Company, priority 1981, dated 1983).
